Laboratory results taken from PubChem BioAssay (NCI).
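Tested at 5 concentrations; 48 h exposure; 96-well plates; endpoints linearly interpolated, else capped at highest concentration. GI50 is the concentration that inhibits growth by half. TGI: total growth inhibition.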

Assays:
Experiment in all cases: NCI-60 cell line screen, 48 h
NCI-H522 lung = test system: NCI-H522 lung
OVCAR-4 ovarian = test system: OVCAR-4 ovarian
HOP-92 NSCLC = test system: HOP-92 NSCLC
ACHN renal = test system: ACHN renal
RXF 393 renal = test system: RXF 393 renal
CCRF-CEM leukemia = test system: CCRF-CEM leukemia
HCT-15 colon = test system: HCT-15 colon
KM12 colon = test system: KM12 colon
U251 CNS = test system: U251 CNS
NCI/ADR-RES ovarian = test system: NCI/ADR-RES ovarian

| SMILES | GI50 (NCI-H522 lung) [µM] | TGI (NCI-H522 lung) [µM] | GI50 (OVCAR-4 ovarian) [µM] | TGI (OVCAR-4 ovarian) [µM] | GI50 (HOP-92 NSCLC) [µM] | TGI (HOP-92 NSCLC) [µM] | GI50 (ACHN renal) [µM] | TGI (ACHN renal) [µM] | GI50 (RXF 393 renal) [µM] | TGI (RXF 393 renal) [µM] | GI50 (CCRF-CEM leukemia) [µM] | TGI (CCRF-CEM leukemia) [µM] | GI50 (HCT-15 colon) [µM] | TGI (HCT-15 colon) [µM] | GI50 (KM12 colon) [µM] | TGI (KM12 colon) [µM] | GI50 (U251 CNS) [µM] | TGI (U251 CNS) [µM] | GI50 (NCI/ADR-RES ovarian) [µM] | TGI (NCI/ADR-RES ovarian) [µM] |
| --- | --- | --- | --- | --- | --- | --- | --- | --- | --- | --- | --- | --- | --- | --- | --- | --- | --- | --- | --- | --- |
| COc1ccc(N=Nc2ccc(O)c(=O)cc2)cc1 | 2.88 | 13.4 | 5.05 | > 100 | 2.66 | > 100 | 3.37 | > 100 | 3.71 | > 100 | 2.18 | 9.94 | 2.55 | > 100 | 3.66 | > 100 | 3.2 | > 100 | – | – |
| O=C1CCc2cc(Br)ccc2O1 | – | > 100 | – | > 100 | – | > 100 | – | > 100 | – | 91.2 | – | > 100 | – | > 100 | – | – | – | > 100 | – | – |
| C[C@@H](NC1CCCC[C@@H]1O)c1ccccc1 (stereo partly specified) | – | – | – | > 100 | – | > 100 | – | > 100 | – | > 100 | – | > 100 | – | > 100 | – | > 100 | – | > 100 | – | – |
| CC(=O)[O-].CC(=O)[O-].O=C([CH-]C(=O)c1ccccc1)c1ccccc1.[Nd+3].[OH3+] | 13.2 | 43.6 | 27 | > 100 | 20.1 | 63.8 | 31.3 | > 100 | – | – | – | – | 19.4 | > 100 | 14 | > 100 | 16.7 | > 100 | – | – |
| CC(=O)OCc1nnn2c1C(OC(C)=O)CC2 (stereo unspecified) | – | > 100 | – | > 100 | – | > 100 | – | > 100 | – | > 100 | – | – | – | > 100 | – | > 100 | – | > 100 | – | – |
| COc1ccc2nc3cc([N+](=O)[O-])ccc3c(NCCO)c2c1 | 1.39 | 2.84 | 1.77 | 3.99 | 1.86 | 7.02 | 4.87 | 31.7 | – | – | 2.17 | 13.4 | 7.24 | – | 2.17 | 6.8 | 1.44 | – | 10 | – |
| CCCCCOC(=O)Nc1nc(=O)n(C2OC(C)C(O)C2O)cc1F (stereo unspecified) | > 10000 | > 10000 | > 10000 | > 10000 | > 10000 | > 10000 | – | – | – | – | > 10000 | > 10000 | > 10000 | > 10000 | > 10000 | > 10000 | > 10000 | > 10000 | > 10000 | > 10000 |
| CC(=O)OC(C(=O)[O][Ge]([CH3])([CH3])[CH3])c1ccccc1 (stereo unspecified) | > 100 | > 100 | > 100 | > 100 | > 100 | > 100 | > 100 | > 100 | 0.264 | 7.09 | – | – | > 100 | > 100 | > 100 | > 100 | > 100 | > 100 | – | – |
| O=C1NC(c2ccc3ccccc3c2)Nc2ccccc21 (stereo unspecified) | – | – | – | > 100 | – | > 100 | – | > 100 | – | > 100 | – | > 100 | – | > 100 | – | > 100 | – | > 100 | – | > 100 |
| NC(=O)c1c[nH]c2ncnc(N)c12 | > 100 | > 100 | 24.1 | > 100 | – | – | 44.1 | > 100 | – | – | 29.5 | > 100 | 41.8 | > 100 | 24.8 | > 100 | > 100 | > 100 | > 100 | > 100 |
| CC[O-].CC[O-].O=C1C=C([O-])C(=O)c2ccccc21.O=C1C=C([O-])C(=O)c2ccccc21.[Ti+4] | > 40.1 | > 100 | > 100 | > 100 | > 100 | > 100 | 71 | > 100 | > 100 | > 100 | > 100 | > 100 | 60.6 | > 100 | > 90.8 | > 100 | > 100 | > 100 | – | – |
| O=C(/C=C(/C=C/c1cccc2[nH]ccc12)OB(F)F)/C=C/c1cccc2[nH]ccc12 | 0.359 | 2.24 | 0.554 | 24.7 | 1.86 | 5.15 | 0.514 | 2.04 | – | – | 0.324 | – | 0.348 | 1.49 | 0.949 | 2.54 | 0.469 | 1.83 | 0.399 | > 100 |
| CCOC(=O)C(C(=O)OCC)=C1C=C(c2ccccc2)c2ccccc21 | – | – | – | > 100 | – | 46.8 | – | > 100 | – | > 100 | – | > 100 | – | > 100 | – | > 100 | – | > 100 | – | – |
